From PubChem BioAssay (NCI)
Values joined by “and” are separate entries in the source; they are usually repeats but may differ in a detail not shown here. Equal entries are not always repeated.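 48-hour exposure; five concentrations; linearly interpolated endpoints. The concentration for 50% growth inhibition is given as GI50. TGI is the concentration that stops growth completely.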

Columns and labels:
Assay in all cases: NCI tumour cell line growth inhibition, 48 h
A498 renal = system: A498 renal
ACHN renal = system: ACHN renal
CAKI-1 renal = system: CAKI-1 renal
CCRF-CEM leukemia = system: CCRF-CEM leukemia
DU-145 prostate = system: DU-145 prostate
MDA-MB-231 breast = system: MDA-MB-231 breast
NCI-H226 lung = system: NCI-H226 lung
NCI/ADR-RES ovarian = system: NCI/ADR-RES ovarian
OVCAR-5 ovarian = system: OVCAR-5 ovarian
SF-268 CNS = system: SF-268 CNS

Structure (SMILES) | GI50 (A498 renal) | TGI (A498 renal) | GI50 (ACHN renal) | TGI (ACHN renal) | GI50 (CAKI-1 renal) | TGI (CAKI-1 renal) | GI50 (CCRF-CEM leukemia) | TGI (CCRF-CEM leukemia) | GI50 (DU-145 prostate) | TGI (DU-145 prostate) | GI50 (MDA-MB-231 breast) | TGI (MDA-MB-231 breast) | GI50 (NCI-H226 lung) | TGI (NCI-H226 lung) | GI50 (NCI/ADR-RES ovarian) | TGI (NCI/ADR-RES ovarian) | GI50 (OVCAR-5 ovarian) | TGI (OVCAR-5 ovarian) | GI50 (SF-268 CNS) | TGI (SF-268 CNS)
O=C1NC(=O)C(=Cc2cn(Cc3ccccc3)c3ccccc23)C(=O)N1 | 0.125 µM | 0.594 µM | 19.8 µM | 53.9 µM | 2.15 µM | 10.5 µM | 20.5 µM | > 67.2 µM | 17.5 µM | 40.4 µM | 15.2 µM | 43.9 µM | 0.951 µM | 3.29 µM | 18.4 µM | 50.3 µM | 0.332 µM | 2.15 µM | 15.8 µM | 32.9 µM
O=c1cc(-c2ccccc2)[nH]c2c1CCCC2 | 1.44 µM | 7.83 µM | 11.6 µM | > 100 µM | 0.944 µM | > 100 µM | 3.4 µM | > 100 µM | 2.47 µM | 8.35 µM | 6.67 µM | > 100 µM | 3.08 µM | 65.6 µM | 1.69 µM | 5.73 µM | 14.8 µM | > 100 µM | 7.72 µM | > 100 µM
COc1ccc2c(c1O)[C@@]13CCCC=C1[C@@H](C2)[N+](C)(C)CC3 | – | – | – | > 100 µM | – | > 100 µM | – | > 100 µM | – | > 100 µM | – | > 100 µM | – | > 100 µM | – | > 100 µM | – | > 100 µM | – | > 100 µM
CN1CCN(CCCOc2ccc3nc(Nc4ccc(F)c(F)c4)ccc3c2)CC1 | 1.26 µM | 4.03 µM | 2.24 µM | 5.6 µM | 1.67 µM | 3.95 µM | 1.95 µM | 11.6 µM | 3.07 µM | 11.5 µM | 1.63 µM | 3.57 µM | 10.8 µM | 29.9 µM | 3.4 µM | 14.7 µM | 2.26 µM | 5.62 µM | 2.45 µM | 8.31 µM
CN1CCN(Cc2ccc(NC(=O)c3[nH]ncc3Nc3ncnc4[nH]ccc34)cc2)CC1 | 0.149 µM | 0.406 µM | 0.322 µM | 10 µM | 1.83 µM | 8.19 µM | 0.254 µM | 5.68 µM | 0.311 µM | > 100 µM | 0.371 µM | 0.941 µM | 0.205 µM | 1.87 µM | 7.16 µM | > 100 µM | 0.456 µM | 17.4 µM | 0.374 µM | 1.42 µM
COc1ccc2nc(C)cc(Sc3nc4ccccc4s3)c2c1 | 1.37 µM | 4.87 µM | 1.21 µM | 5.77 µM | – | 0.626 µM | 0.377 µM | 2.65 µM | 2.2 µM | 7.55 µM | 1.05 µM | 5.93 µM | 0.728 µM | 4.1 µM | 1.43 µM | 4.42 µM | 1.79 µM | 8.19 µM | 2.02 µM | 5.51 µM
O=C1CC(c2cccc(Cl)c2)Oc2ccccc21 (centres undefined) | – | 46.3 µM | – | 31.7 µM | – | 23.3 µM | – | 48.4 µM | – | 38.2 µM | – | > 100 µM | – | 41.3 µM | – | 48.9 µM | – | – | – | 50.6 µM
C=C(C)[C@@H]1CCc2c(O)c(O)c(=O)cc(C)c2C1 | – | > 62.3 µM | – | 14.1 µM | – | 10.9 µM | – | – | – | > 100 µM | – | > 100 µM | – | > 63 µM | – | 25.8 µM | – | > 100 µM | – | > 100 µM
O=C1C=CC(=O)c2c1ccc1c3ccccc3n(Cc3ccccc3)c21 | – | 44.3 µM | – | 35.4 µM | – | 32 µM | – | 10.9 µM | – | > 100 µM | – | 43.1 µM | – | 24.7 µM | – | > 68.4 µM | – | 72.4 µM | – | > 77.6 µM
NC1=NC(SCc2ccccc2CCl)c2ncn(Cc3ccccc3CCl)c2N1 (centres undefined) | 8.51 µM | 25.3 µM | 2.07 µM | 5.45 µM | 1.77 µM | 3.82 µM | 1.79 µM | 5.68 µM | 1.35 µM | 2.7 µM | 2.9 µM | 11.4 µM | 1.9 µM | 4.7 µM | 1.81 µM | 4.3 µM | 2.7 µM | 9.88 µM | 2.01 µM | 10.2 µM
COc1cc(C)cc(C(=O)/C=C/c2ccccc2)c1O | – | 33.3 µM | – | 33.1 µM | – | 39.1 µM | – | 84.1 µM | – | 29.4 µM | – | 47.9 µM | – | 73.9 µM | – | 52 µM | – | 34.9 µM | – | 88.1 µM
COc1cc(/C=C/C(=O)CC(=O)/C=C/c2cc(OC)c(O)c(OC)c2)cc(OC)c1O | 15.6 µM | 12.2 µM and 37.5 µM | 42.2 µM | 25 µM and > 100 µM | 21.1 µM | 25 µM and > 100 µM | 4.01 µM | > 25 µM and 64.8 µM | 20.7 µM | 24.8 µM and > 100 µM | 9.37 µM | 25 µM and 32.6 µM | 53.6 µM | 25 µM and > 100 µM | > 100 µM | > 100 µM | 27.1 µM | 25 µM and 83.5 µM | 9.06 µM | 15.4 µM and 41.2 µM
C=C(C(=O)OC)[C@@H]1CC2OC1C(=O)C(C)CCC/C(C)=C/CC[C@@]2(C)O (some centres undefined) | 37.2 µM | 96.8 µM | 18.6 µM | 42.6 µM | 11.4 µM | 27.6 µM | 11 µM | 36.1 µM | 15 µM | 28.2 µM | 28.3 µM | 68 µM | – | – | 28.8 µM | 86.4 µM | 76.7 µM | > 100 µM | 39.4 µM | > 100 µM
CC12CCC(=O)C(O1)C1C(=O)c3ccc4c(ccc5ccccc54)c3C(=O)C12 (centres undefined) | 3.08 µM | 5.83 µM | 3.13 µM | 8.21 µM | 1.82 µM | 6.63 µM | 3.77 µM | > 100 µM | 2.73 µM | 6.49 µM | 2.14 µM | 6.64 µM | 5.78 µM | 12.7 µM | 5.43 µM | 12.6 µM | 6.64 µM | 11.4 µM | 15.3 µM | 36.1 µM
